Measurements taken from patent US9315492B2, “Heterocyclic group contained amino-methanol derivative, and salt, synthetic method and use thereof” (BEIJING FORELAND BIOPHARMA CO., LTD., priority 2012, dated 2016).

Legend:
[1] = tested on: autoimmune multiple sclerosis (PLP139-151 immunized mice); experiment: Experimental autoimmune multiple sclerosis; format: in vivo; conditions: SJL/J mice, 5 and 30 mg/kg/d intragastric, 30 days
S1P1 [2] = target: T1, S1P1 (Homo sapiens (Human), UniProt P21453); experiment: S1P1 β-arrestin assay (PathHunter CHO-K1 EDG1); format: cell-based; conditions: CHO-EDG-1 cells
Description: 2.1 Experimental Materials: Path hunter express CHO-K1 EDG1 β-arrestin GPCR Assay was purchased from DiscoveRx, containing CHO-EDG-1 cells, buffers, substrate-1, substrate-2, cell culture fluid, 96-well cell culture plate.
1) The test compounds were dissolved in DMSO and prepared as a concentration of 20 mM.
2) The concentrations of the test compounds were detected ranging from […] to 20 μM.
4) Assay procedures: OCC culture solution was preheated in water tank at 37° C. Cells were taken out from liquor nitrogen tank, left on the dry-ice, and dissolved in water tank at 37° C. 0.5 ml OCC culture solution was added and blended slowly. The cells were diluted in 11.5 mL OCC culture solution, and 100 μL cell suspension (containing 8333 cells) was added to each well of the 96-well plate. The 96-well plate was incubated for 8 hours under 5% CO2 at 37° C., and 10 μL test compound dissolved in DMSO was added in; 10 μL DMSO was used as negative control. After the plate was incubated for 90 min at 37° C., 55 μL detection solution was added to each well. Then the results were read out by EnVision after the cell plate was incubated for 90 min at room temperature.
The EC50 Value was Calculated by Using Prism 4 Software

[3] = tested on: peripheral blood lymphocyte; experiment: Effects on peripheral blood lymphocyte in mice; format: in vivo, Balb/c mice; conditions: intragastric
Description: 3. Effects of the Compounds in Example-21 and Example-22 on Peripheral Blood Lymphocyte in Mice
3.1 Experimental Materials:
1) 15% EDTA, PBS, EP tubes, 15 ml centrifuge tube, capillary tube, pipette tip were all purchased from Shanghai biological technology co., Ltd. Hemocyte analysis reagents were purchased from Shanghai Sysmex Company.
2) 35 Balb/c mice (female, 20-22 g), supplied by laboratory animal center of Jilin University.
3) Automated Hematology Analyzer (pocH-100 iV Diff) was purchased from Sysmex Company, Kobe, Japan.
1) The stock solutions of the compounds obtained in Example-21 and Example-22 were prepared with normal saline, and the concentrations are 2 mg/ml and 20 mg/ml, respectively.
2) The mice were divided into […], i.e., control group, low-dose experimental group, and high-dose experimental group. They were weighed and labeled well.
3) Before administration, supraorbital venous blood was collected with 20 μl/mouse which was added to anticoagulant tube containing EDTA, and nosed thoroughly. The numbers of lymphocytes were analyzed by pocH-100.
4) The control group was given normal saline: low-dose experimental groups were given the compounds obtained in Example-21 and Example-22 (5 mg/kg/d), high-dose experimental groups were given the compounds obtained in Example-21 and Example-22 (30 mg/kg/d), with liquid amount of 500 μl/mouse, by intragastric administration. Administration was performed for continuous four days, once a day. After 3.5 hours of the first and fourth administration, blood was collected respectively, and changes in the numbers of lymphocytes were analyzed by pocH-100.

[4] = tested on: experimental rheumatoid arthritis (bovine collagen type II immunized mice); experiment: Experimental rheumatoid arthritis; format: in vivo; conditions: DBA/1JLacJ mice, 5 and 30 mg/kg/d intragastric, 30 days
S1P1 [5] = target: T1, S1P1; experiment: S1P1 GTPγS binding assay; format: biochemical; conditions: [35S]-GTPγS, membranes with high-expressed S1P1 (CHO-S1P1)
Description: 1. S1P1GTPγS Binding Assay
2) T-75 cell culture plate; 150 mm cell culture dish
3) DMEM cell culture fluid; 10% (v/v) fetal bovine serum; 100 U/ml penicillin-100 μg/ml streptomycin; 2 mM […], 1 mg/ml G-418
4) Cell Lysis Buffer: HEPES 20 mM (pH 7.4), EDTA 10 mM
5) Stock solution: HEPES 20 mM, EDTA 0.1 mM
6) Binding Buffer; HEPES 20 mM (pH 7.4), NaCl 100 mM, MgCl2 5 mM, GDP 1 μM, BSA 0.1% (w/v), DMSO 2.5% (v/v),
7) Washing solution: NaH2PO4 10 mM (pH 7.4)
The test compounds were dissolved in DMSO and prepared as a concentration of 20 mM.
The concentrations of the compounds were detected ranging from 0.3 nM to 20 μM.
Control group: […] SIP and SEW2871 were used as positive control and were purchased from Tocris company, and the binding buffet was as negative control.
Test method: wetting membranes by saponin solution, and preparing [^35S]-GTPγS in binding solution (4×). The test compound was prepared as 4× of the final concentration which was then performed serial 3× dilution in 100% DMSO. Membranes with high-expressed S1P1 were collected in 5 ml binding buffer, and 50 μL was added to 96-well (containing 5 μg membrane protein with high-expressed S1P1). 25 μL, test compound was added in each well. The compound was incubated with the membranes for 30 min at room temperature, then 25 μL [^35S]-GTPγS was added, and the experiment was initiated. The 96-well detection plate was incubated for 1 hour at room temperature, filtered by filtermat B, and washed with washing solution for three times. After the plate was dried for 1 h at 50° C., 8 ml scintillator solution was added and counted using scintillation counter.
Result Analysis and Determination of 50% Inhibitory Concentration (IC50):
The IC50 value was calculated by using (Prism 4) software, and 50% inhibitory concentrations were obtained.

[6] = tested on: peripheral blood lymphocyte; conditions: general statement for FTY720; cited from earlier work

T1 sequence (P21453 whole entry): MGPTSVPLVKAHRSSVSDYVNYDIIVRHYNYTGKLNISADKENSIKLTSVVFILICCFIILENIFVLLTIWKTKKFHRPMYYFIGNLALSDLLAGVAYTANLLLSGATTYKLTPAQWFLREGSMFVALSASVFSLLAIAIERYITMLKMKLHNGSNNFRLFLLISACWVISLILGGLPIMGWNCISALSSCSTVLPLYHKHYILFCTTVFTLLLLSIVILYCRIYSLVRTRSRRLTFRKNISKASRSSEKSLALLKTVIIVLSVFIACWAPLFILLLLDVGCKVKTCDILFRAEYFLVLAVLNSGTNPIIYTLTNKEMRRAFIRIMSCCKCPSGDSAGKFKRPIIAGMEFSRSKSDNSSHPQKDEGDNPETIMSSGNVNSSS

Row | Compound | effect on induction and development of autoimmune multiple sclerosis [1] | effect on induction and development of autoimmune multiple sclerosis ([1]; listed as Example-22) | EC50 (S1P1 [2]) | toxicity ([3]; dose up to 30 mg/kg/d, four days) | behavior and weight of mice, pre- versus post-administration ([3]; four days) | numbers of peripheral blood lymphocyte reduced compared to pre-administration ([3]; once a day for continuous four days) | effect on induction and development of experimental rheumatoid arthritis [4] | effect on induction and development of experimental rheumatoid arthritis ([4]; listed as Example-22) | IC50 (S1P1 [5]) | number of peripheral blood lymphocytes decreased [6]
1 | 2-(7-amino-5,6,7,8-tetrahydro-7-naphthalenemethanol)-5-(3-methyl-4-isopropoxy)-1,3,4-oxdiazole [Example 22] | obviously inhibiting | remarkable inhibitory effects | 8 nM | no toxicity effects | no differences | 78% | obviously inhibiting | remarkable inhibitory effects | 3 nM | 
2 | CCCCCCCCc1ccc(CCC(N)(CO)CO)cc1 [FTY720] |  |  |  |  |  |  |  |  |  | 70-80%
